Measurements from US7449571B2, “Halogenated aminoquinolines and oligonucleotides containing the same” (Board of Regents of the University of Nebraska, priority 2005, dated 2008).
Where two headings read alike, the source gives them in different places.

Experiments:
[1] = Li et al. 2003, Li et al. 2004; cited from earlier work

pKa (NaOAc buffer, pH 4.602-8.322, UV absorbance at 235 nm or fluorescence emission vs pH) | fraction of antiAT-F protonated (pH 8.0) | SMILES | pKa [1]
– | – | Nc1nc([C@H]2C[C@H](O)[C@@H](CO)O2)c2ccccc2n1 [antiAT, 2-amino-4-(2′-deoxy-β-D-ribofuranosyl)quinazoline] | 4.8
6.7 | approximately 2% | Nc1cc([C@H]2C[C@H](O)[C@@H](CO)O2)c2cc(F)ccc2n1 [antiAT-F, 2-amino-6-fluoro-4-(2′-deoxy-β-D-ribofuranosyl)-quinoline] | –
– | – | Nc1cc([C@H]2C[C@H](O)[C@@H](CO)O2)c2ccccc2n1 [antiGC, 2-amino-4-(2′-deoxy-β-D-ribofuranosyl) quinoline] | 7.2
